# Results as given in patent US6130248A, “Tricarboxylic acid-containing oxyalkyl esters and uses thereof” (Bar-ILAn University, priority 1996, dated 2000).
# Legend:
# [1] = system: 53 primary tumor cell lines; experiment: Inhibition of clonogenicity of primary tumor cells; format: cell-based, human; details: Homo sapiens
# Excerpt: The tested tumor cells were from 11 non-small cell lung carcinomas, 10 breast carcinomas, 10 gastric carcinomas, 10 ovarian carcinomas, and 10 CNS tumors.
# [2] = system: Au565 breast carcinoma cells; experiment: Differentiation by lipid staining; format: cell-based, human; details: 10 μM
# Excerpt: Lipid staining and/or immunochemical staining of casein can be used as a marker for cellular differentiation of breast cancer cells (Bacus et al., Md. Carcin. 3:350-362, 1990). Casein detection can be done by histochemical staining of breast cancer cells using a human antibody to human casein as described by Cheung et al., J. Clin. Invest. 75:1722-1728,which is incorporated by reference in its entirety.
# In the case of the human breast carcinoma cell line Au565, 100%. Of the cells treated with 10 μM GOMB were positive for lipid staining whereas less than 1% of cells treated with the same concentration of AB were positive for lipid staining.
# IMR-32 (Neuroblastoma) = experiment: Clonogenicity of established tumor cell lines (soft agar); format: cell-based, human; details: Homo sapiens; IMR-32 clonogenicity
# Method: (§1) Inhibition of tumor growth was tested using cell lines as follows: […]
# SK-N-SH (Neuroblastoma) = experiment: as above; format: cell-based, human; details: Homo sapiens; SK-N-SH clonogenicity
# Method: as §1
# NBL-W-N (Neuroblastoma) = experiment: as above; format: cell-based, human; details: Homo sapiens; NBL-W-N clonogenicity
# Method: as §1
# LA1-5S (Neuroblastoma) = experiment: as above; format: cell-based, human; details: Homo sapiens; LA1-5S clonogenicity
# Method: as §1
# [3] = system: MCF7-WT (Breast Carcinoma); experiment: as above; format: cell-based, human; details: Homo sapiens; MCF7-WT clonogenicity
# Method: as §1
# SMS-KAN (Neuroblastoma) = experiment: as above; format: cell-based, human; details: Homo sapiens; SMS-KAN clonogenicity
# Method: as §1
# PC3 (Prostate Carcinoma) = experiment: as above; format: cell-based, human; details: Homo sapiens; PC3 clonogenicity
# Method: as §1
# NBAS-5 (Neuroblastoma) = experiment: as above; format: cell-based, human; details: Homo sapiens; NBAS-5 clonogenicity
# Method: as §1
# K562 (Erytholeukemia) = experiment: as above; format: cell-based, human; details: Homo sapiens; K562 clonogenicity
# Method: as §1
# SK-N-MC (Neuroblastoma) = experiment: as above; format: cell-based, human; details: Homo sapiens; SK-N-MC clonogenicity
# Method: as §1
# [4] = system: LNCaP (Prostate Carcinoma); experiment: as above; format: cell-based, human; details: Homo sapiens; LNCaP clonogenicity
# Method: as §1
# [5] = system: MCF7-40F (Breast Carcinoma); experiment: as above; format: cell-based, human; details: Homo sapiens; MCF7-40F clonogenicity
# Method: as §1
# K562 cells (HbF) [6] = experiment: HbF synthesis in K562 cells (ion-exchange HPLC); format: cell-based, human
# Method: (§2) K562 cells: K562 is an erthroblast cell line that develops some properties of erythroid, megakaryocyte or monocyte cells, depending on the specific stimulus, when induced by different chemicals. K562 cells were grown in RPMI with 10% FCS, supplemented with 2 mM glutamine. Cells were incubated at 37° C. in a humidified, 5% CO2 incubator.
# K562 cells (HbF) [7] = experiment: Hb-containing K562 cells by benzidine staining; format: cell-based, human; details: 0.05 mM, 5 days
# Method: Hb Measurement: HB was measured by benzidine staining of K562 cells after 5 days exposure to GOMB or AB according to the procedure of Fibach et al. (1989) [full cite]. Quantitative measurement of HbF in K562 culture or human erythroid cultures was determined by ion-exchange high pressure liquid chromatography (HPLC) as described by Fibach et al., Blood 81:1630-1635, 1993.
# as §2
# MCF-7 cells (WAF) = experiment: Apoptosis in breast cancer cells, staining with WAF antibody / Western blot; format: cell-based, human; details: 100 μM
# Method: Induction of apoptosis by COMB and AB in MCF-7 cells was evaluated by staining cells with the WAF antibody and by Western blot analysis as described by Bacus et al., 1996, Oncogene 12:2535-2547.
# MCF7 cells = experiment: SRB cell proliferation assay; format: cell-based; details: Homo sapiens
# Method: (§3) The inhibition of cell proliferation was measured in the indicated cancer cell lines using the sulforhoamine B (SRB) assay as described by Monks et al., J. Natl. Can. Inst. […] The SRB assay is used to screen for anti-cancer drugs.
# HT-29 cells = experiment: SRB cell proliferation assay; format: cell-based; details: Homo sapiens; HT-29, SRB
# Method: as §3
# CFPAC cells = experiment: SRB cell proliferation assay; format: cell-based
# Method: as §3
# HL-60 cells = experiment: SRB cell proliferation assay; format: cell-based; details: Homo sapiens; HL-60, SRB
# Method: as §3
# [8] = system: established tumor cell lines; experiment: Clonogenicity of established tumor cell lines, all lines together; format: cell-based, human; details: in words
# Method: as §1
# [9] = system: P3HR-1 EBV-positive lymphoma cells; experiment: [3H]-thymidine incorporation in EBV-positive lymphoma cells; format: cell-based, human; details: combination with GC, 72 hours
# Method: The effect of GOMB to AB was compared on EBV virus-associated tumors. EBV-positive cells from P3HR-1, a human lymphoma cell line, were incubated in growth medium with the specified concentration of GOMB, AB, ganciclovir (GC), or combination of these, for 72 hours, seeded in 96-well plates and pulsed with 1 μCi [^3 H]-thymidine/well during the last 16 hours of exposure to the compounds. Cells were harvested with a cell harvester, using glass microfiber filters. The incorporation of [^3 H]-thymidine was determined by retention of the acid insoluble fraction on filters and is expressed as CPM.
# [10] = system: β-thalassemia and sickle-cell anemia; details: β-globin disorders; cited from earlier work
structure (smiles),measurement,setting,value
"CCCC(=O)O [AB, arginine butyrate, reference compound]",IC90,[1],2120 µM
same,cells positive for lipid staining,[2],less than 1%
same,IC50,IMR-32 (Neuroblastoma),881 µM
same,IC90,IMR-32 (Neuroblastoma),3570 µM
same,IC50,SK-N-SH (Neuroblastoma),998 µM
same,IC90,SK-N-SH (Neuroblastoma),3400 µM
same,IC50,NBL-W-N (Neuroblastoma),489 µM
same,IC90,NBL-W-N (Neuroblastoma),3070 µM
same,IC50,LA1-5S (Neuroblastoma),1630 µM
same,IC90,LA1-5S (Neuroblastoma),2680 µM
same,IC50,[3],1500 µM
same,IC90,[3],9470 µM
same,IC50,SMS-KAN (Neuroblastoma),1140 µM
same,IC90,SMS-KAN (Neuroblastoma),2080 µM
same,IC50,PC3 (Prostate Carcinoma),226 µM
same,IC50,NBAS-5 (Neuroblastoma),883 µM
same,IC90,NBAS-5 (Neuroblastoma),13000 µM
same,IC50,K562 (Erytholeukemia),772 µM
same,IC50,SK-N-MC (Neuroblastoma),215 µM
same,IC90,SK-N-MC (Neuroblastoma),1310 µM
same,IC50,[4],780 µM
same,IC90,[4],6700 µM
same,IC50,[5],817 µM
same,IC90,[5],3180 µM
same,HbF Synthesis in K562 Cells,K562 cells (HbF) [6]; 0.01 mM,0.96 µg/mL
same,HbF Synthesis in K562 Cells,K562 cells (HbF) [6]; 0.05 mM,0.95 µg/mL
same,HbF Synthesis in K562 Cells,K562 cells (HbF) [6]; 0.10 mM,1.8 µg/mL
same,HbF Synthesis in K562 Cells,K562 cells (HbF) [6]; 0.50 mM,3.69 µg/mL
same,Percentage K562 Cells Containing HbF,K562 cells (HbF) [7],3 ± 2%
same,% Cells Expressing WAF,MCF-7 cells (WAF),23%
same,IC50,MCF7 cells,> 4000 µM
same,IC90,MCF7 cells,> 4000 µM
same,IC50,HT-29 cells,> 4000 µM
same,IC90,HT-29 cells,> 4000 µM
same,IC50,CFPAC cells,> 4000 µM
same,IC90,CFPAC cells,> 4000 µM
same,IC50,HL-60 cells,1640 µM
same,IC90,HL-60 cells,3460 µM
same,"inhibition of cell proliferation, dose dependence",[8],inhibit cell proliferation in a dose-dependent manner
same,interaction with ganciclovir (GC) in inhibiting proliferation,[9],interact synergistically with GC
same,clinical efficacy,[10],moderate efficacy
"CCCC(=O)OCOC(=O)C(C)(C)C [AN-9, pivaloyloxymethyl butyrate]",IC50,MCF7 cells,180 µM
same,IC90,MCF7 cells,238 µM
same,IC50,HT-29 cells,144 µM
same,IC90,HT-29 cells,231 µM
same,IC50,CFPAC cells,55.9 µM
same,IC90,CFPAC cells,89.8 µM
same,IC50,HL-60 cells,39 µM
same,IC90,HL-60 cells,59.9 µM
